Source: US6348614B1 (priority 1996, dated 2002)
Like-named read-outs stand apart in the source and are kept apart here.

How the values were obtained:
Phytophthora infestans = assay type: in vivo; details: potato, 2000 ppm
[1] = system: Erysiphe graminis tritici; assay: Powdery mildew in wheat, additional examples (Table 6); assay type: in vivo; details: 500 ppm, 7 days after inoculation
Protocol: Wheat plants (cv.Shafir) were raised from seed in the greenhouse, 30 plants per 0.2 liter pot. When the first leaf was fully developed plants were sprayed with the test solutions and placed in a 20° C. growth cabinet. Two days after spraying plants were dusted with conidia of E. graminis tritict so that about 100 spores were settled on 1 cm^2 of leaf area (both surfaces). […] Control efficacy was calculated relative to number of colonies developed on the control-inoculated untreated plants.

[2] = system: Pseudoperonospora cubensis; assay: Downy mildew in melon (Table 7); details: 500 ppm, 7 days after inoculation
Protocol: Cucumber plants (cv,Dlila) and melon plants (cv.Ein Dor) were raised from seeds in 0.2 liter pots in the greenhouse. At 3 weeks after sowing when had 3 true leaves they were inoculated with sporangial suspension (1000 sporangia/ml) of P.cubensis (resistant to metalaxyl) and placed in 100% relative humidity in the dark for 20 hr. They were then place in a 20° C. growth cabinet for 7 days and assessed for disease development. Percentage leaf area covered with disease symptoms was evaluated and control efficacy was calculated relative to control inoculated plants.

Plasmopara viticola = assay: Downy mildew in grapes (Table 9); assay type: in vivo; details: 500 ppm, 10 days after inoculation
Protocol: Two days after spraying plants were inoculated with sporangial suspension of P.viticola ([…]) onto their lower leaf surface and placed in 100% relative humidity for 20 hr. The plants were then placed in a growth cabinets 20° C. for 10 days. Disease development was assessed according to the abaxial leaf surfaces area covered with fungal sporulation.

Compound | Control efficacy (%) 7d [1] [%] | Control efficacy % 7 days [2] [%] | Control efficacy % 10d (Plasmopara viticola) [%] | further results
CCCCCCCCOC(=O)CC(C)NS(=O)(=O)c1ccccc1 (racemic) [Example 7, DL-N-benzenesulfonyl-3-aminobutyric acid n-octyl ester] | – | – | – | Control Efficacy % (Phytophthora infestans; 3 days after inoculation): 100%; Control Efficacy % (Phytophthora infestans; 4 days after inoculation): 100%; Control Efficacy % (Phytophthora infestans; 6 days after inoculation): 82%; Control Efficacy % (Phytophthora infestans; 8 days after inoculation): 77%
CC(CC(=O)OCCCl)NC(=O)c1ccccc1 (racemic) [Example 11, DL-N-benzoyl-3-aminobutyric acid 2-chloroethyl ester] | – | – | – | Control Efficacy % (Phytophthora infestans; 3 days after inoculation): 95%; Control Efficacy % (Phytophthora infestans; 4 days after inoculation): 92%; Control Efficacy % (Phytophthora infestans; 6 days after inoculation): 82%; Control Efficacy % (Phytophthora infestans; 8 days after inoculation): 70%
CCC(C)OC(=O)CC(C)NS(=O)(=O)c1ccccc1 (stereo not drawn) [Example 8, N-benzenesulfonyl-3-aminobutyric acid-sec butyl ester] | – | – | – | Control Efficacy % (Phytophthora infestans; 3 days after inoculation): 100%; Control Efficacy % (Phytophthora infestans; 4 days after inoculation): 92%; Control Efficacy % (Phytophthora infestans; 6 days after inoculation): 87%; Control Efficacy % (Phytophthora infestans; 8 days after inoculation): 50%
CCCC(C)OC(=O)CC(C)NS(=O)(=O)c1ccccc1 (stereo not drawn) [Example 9, N-benzenesulfonyl-3-aminobutyric acid 1-methyl-1-butyl ester] | – | – | – | Control Efficacy % (Phytophthora infestans; 3 days after inoculation): 99%; Control Efficacy % (Phytophthora infestans; 4 days after inoculation): 97%; Control Efficacy % (Phytophthora infestans; 6 days after inoculation): 82%; Control Efficacy % (Phytophthora infestans; 8 days after inoculation): 62%
CCCCCCCOC(=O)CC(C)NC(=O)c1ccc(OC)cc1 (stereo not drawn) [compound 12, D,L N-4-methoxybenzoyl-3-aminobutyric acid heptyl ester] | 85 | 100 | – | –
CCCCCCCOC(=O)CC(C)NC(=O)c1cc(C)cc(C)c1 (stereo not drawn) [compound 13, D,L N-3,5-dimethylbezoyl-3-aminobutyric acid heptyl ester] | 72 | – | – | –
CCCCCCCOC(=O)CC(C)NC(=O)c1c(F)cccc1F (stereo not drawn) [compound 14, D,L N-2,6-difluorobenzoyl-3-aminobutyric acid heptyl ester] | – | – | 100 | –
CCCCC(C)OC(=O)CC(C)NS(=O)(=O)c1ccc(C)cc1 (stereo not drawn) [compound 16, D,L N-4-methylbenzenesulfonyl-3-aminobutyric acid i-methylpentyl ester] | 83 | – | 100 | –
CC(CC(=O)OCCCc1ccccc1)NS(=O)(=O)c1ccccc1 (stereo not drawn) [compound 17, D,L N-benzenesulfonyl-3-aminobutyric acid 3-phenylpropyl ester] | – | 87 | 97 | –
CCCCC(C)OC(=O)CC(C)NC(=O)c1ccc(Cl)cc1 (stereo not drawn) [compound 18, D,L N-4-cholrobenzoyl-3-aminobutyric acid 1-methylpentyl ester] | – | 87 | 91 | –
CC(CC(=O)OCCC(Cl)(Cl)Cl)NS(=O)(=O)c1ccccc1 (stereo not drawn) [compound 19, D,L N-benzenesulfonyl-3-aminobutyric acid 2-(trichloromethyl)ethyl ester] | – | 83 | 94 | –
CCC(C)OC(=O)CC(C)NS(=O)(=O)c1ccc(C)cc1 (stereo not drawn) [compound 20, D,L N-4-methylbenzenesulfonyl-3-aminobutyric 1-methylpropyll ester] | – | – | 100 | –
CCCCCCCOC(=O)CC(C)NC(=O)c1cccc(C)c1 (stereo not drawn) [compound 22, D,L N-3-methylbezoyl-3-aminobutyric acid heptyl ester] | – | 83 | – | –
CCCCC(C)OC(=O)CC(C)NC(=O)c1cc(C)cc(C)c1 (stereo not drawn) [compound 23, D,L N-3,5-dimethylbezoyl-3-aminobutyric acid 1-methylpentyl ester] | – | 73 | 100 | –
CCCCCCCOC(=O)CC(C)NC(=O)c1c(Cl)cccc1Cl (stereo not drawn) [compound 24, D,L N-2,6-dichlorobenzoyl-3-aminobutyric acid heptyl ester] | – | – | 100 | –
CCCC(C)COC(=O)CC(C)NC(=O)c1c(Cl)cccc1Cl (stereo not drawn) [compound 25, D,L N-2,6-dichlorobenzoyl-3-aminobutyric acid 2-methylpentyl ester] | – | 80 | 100 | –
Cc1ccc(C(=O)NC(C)CC(=O)OCCCc2ccccc2)cc1 (stereo not drawn) [compound 26, D,L N-4-methylbenzoyl-3-aminobutyric acid 3-phenylpropyl ester] | – | – | 99 | –
Cc1cc(C)cc(C(=O)NC(C)CC(=O)OCCCl)c1 (stereo not drawn) [compound 27, D,L N-3,5-dimethylbezoyl-3-aminobutyric acid 2-chloroethyl ester] | – | 73 | 97 | –
COc1ccc(C(=O)NC(C)CC(=O)OCCCl)cc1 (stereo not drawn) [compound 28, D,L N-4-methoxybenzoyl-3-aminobutyric acid 2-chloroethyl ester] | – | – | 91 | –

Compound | Control efficacy (%) 7d [1] [%] | Control efficacy % 7 days [2] [%] | Control efficacy % 10d (Plasmopara viticola) [%] | further results
CC(CC(=O)OCCC(Cl)(Cl)Cl)NC(=O)c1ccccc1 (stereo not drawn) [compound 29, D,L N-benzoyl-3-aminobutyric acid 2-(trichloromethyl)ethyl ester] | – | 70 | 91 | –
CCCCCCCOC(=O)CC(C)NC(=O)c1ccc(Cl)cc1 (stereo not drawn) [compound 30, D,L N-4-cholrobenzoyl-3-aminobutyric acid heptyl ester] | – | – | 91 | –
COCC(C)OC(=O)CC(C)NS(=O)(=O)c1ccccc1 (stereo not drawn) [compound 31, D,L N-benzenesulfonyl-3-aminobutyric acid 1-methyl-2-methoxyethyl ester] | – | – | 82 | –
CCCCCCCOC(=O)CC(C)NC(=O)c1ccccc1C (stereo not drawn) [compound 32, D,L N-2-methylbezoyl-3-aminobutyric acid heptyl ester] | 83 | 77 | – | –
Cc1ccc(S(=O)(=O)NC(C)CC(=O)OCCBr)cc1 (stereo not drawn) [compound 33, D,L N-4-methylbenzenesulfonyl-3-aminobutyric acid 2-bromoethyl ester] | – | 75 | – | –
CCCCCCCOC(=O)CC(C)NS(=O)(=O)c1ccc(C)cc1 (stereo not drawn) [compound 34, D,L N-4-methylbenzenesulfonyl-3-aminobutyric acid heptyl ester] | – | 70 | – | –
CCCOC(=O)CC(C)NS(=O)(=O)c1ccccc1 (stereo not drawn) [compound 41, D,L N— benzenesulfonyl-3-aminobutyric acid propyl ester] | 77 | – | – | –
C=CCOC(=O)CC(C)NC(=O)c1ccccc1 (stereo not drawn) [compound 42, N-benzoyl-3-aminobutyric acid-2 propenyl ester] | 77 | – | – | –
CCCCCC(C)OC(=O)CC(C)NC(=O)c1ccc(C)cc1 (stereo not drawn) [compound 43, D,L N-4-methylbenzoyl-3-aminobutyric acid 1-methylhexyl ester] | 75 | – | – | –
CCCCCCCCCC(C)OC(=O)CC(C)NC(=O)c1ccc(C)cc1 (stereo not drawn) [compound 44, D,L N-4-methylbenzoyl-3-aminobutyric acid 1-methyldecanyl ester] | 74 | – | – | –
CCCCCCCOC(=O)CC(C)NC(=O)c1ccc(C)c(C)c1 (stereo not drawn) [compound 45, D,L N-3,4-dimethylbezoyl-3-aminobutyric acid heptyl ester] | 71 | – | – | –
CCCCC(C)OC(=O)CC(C)NC(=O)c1ccc(C)cc1 (stereo not drawn) [compound 46, D,L N-4-methylbezoyl-3-aminobutyric acid 1-methylpentyl ester] | 69 | – | – | –
CNc1ccccc1C(=O)NC(C)CC(=O)OC (stereo not drawn) [compound 47, D,L N-2-methylaminobenzoyl-3-aminobutyric acid methyl ester.] | 81 | – | – | –
CCCCC(C)OC(=O)CC(C)NS(=O)(=O)c1ccc(Cl)cc1 (stereo not drawn) [compound 50, D,L N-4-chlorobenzensulfonyl-3-aminobutyric acid 1-methylpentyl ester] | 92 | – | – | –
CC(CC(=O)OCCCc1ccccc1)NS(=O)(=O)c1ccccc1 (stereo not drawn) [compound 51, D,L N-benzensulphonyl-3-aminobutyric acid 3-phenylpropyl ester] | – | 87 | 97 | –
CC(CC(=O)Oc1cc(Cl)cc(Cl)c1)NS(=O)(=O)c1ccccc1 (stereo not drawn) [compound 53, D,L N-benzensulfonyl-3-aminobutyric acid 3,5-dichlorophenyl ester] | 100 | – | – | –
CCCCCCCCOC(=O)CC(C)NC(=O)c1ccc(C)c(C)c1 (stereo not drawn) [compound 54, D,L N-3,4-dimethylbenzoyl-3-aminobutyric acid octyl ester] | 69 | – | – | –
N-β-methylbenzoyl-1-aminobutyric acid-1-methyl-1-pentyl ester [Example 10] | – | – | – | Control Efficacy % (Phytophthora infestans; 3 days after inoculation): 100%; Control Efficacy % (Phytophthora infestans; 4 days after inoculation): 100%; Control Efficacy % (Phytophthora infestans; 6 days after inoculation): 97%; Control Efficacy % (Phytophthora infestans; 8 days after inoculation): 87%
